The values that follow come from ChEMBL document CHEMBL1143298, “Second generation 4-(4-methyl-1H-indol-5-ylamino)-2-phenylthieno[2,3-b]pyridine-5-carbonitrile PKCtheta inhibitors” (Bioorg Med Chem Lett, 2009).

≈ marks a conversion by molar mass, not a printed value. A value given as a limit tells only on which side of the number the result lay.

The species named for one series is Homo sapiens. The series can be described thus: Selectivity ratio of IC50 for human full length PKCdelta to IC50 for human full length PKCtheta.
Series [1] has as its target Protein kinase C delta type (Homo sapiens, UniProt Q05655). The series can be described thus: Inhibition of human full length PKCdelta.
Series [2] addresses Tyrosine-protein kinase Lyn (Homo sapiens, UniProt P07948). The series can be described thus: Inhibition of Lyn.
The target of series [3] is Protein kinase C eta type (Homo sapiens, UniProt P24723). The series is described as follows: Inhibition of human full length PKCeta.
For series [4], the target named is Protein kinase C beta type (Homo sapiens, UniProt P05771). The series is described as follows: Inhibition of human full length PKCbeta.
Series [5] can be described thus: Metabolic stability in rat liver microsomes. The format is ADME, Microsome.
Series [6] can be described thus: Membrane permeability by PAMPA. The series is classed as ADME. As to conditions: read-out: permeability.
Series [7] deals with Proto-oncogene tyrosine-protein kinase Src (Homo sapiens, UniProt P12931). The series can be described thus: Inhibition of Src.
Series [8] in a line: Metabolic stability in human liver microsomes. The format is ADME, Microsome.
A short description of series [9]: Solubility at pH 7.4. The series is classed as physicochemical. As to conditions: buffer.
Series [10] can be described thus: Metabolic stability in mouse liver microsomes. The series is classed as ADME, Microsome.
Series [11] deals with MAP kinase-activated protein kinase 2 (Homo sapiens, UniProt P49137). The series can be described thus: Inhibition of MK2.
Series [12] addresses T1, Protein kinase C epsilon type (Homo sapiens, UniProt Q02156).
T1 sequence (Q02156 whole entry): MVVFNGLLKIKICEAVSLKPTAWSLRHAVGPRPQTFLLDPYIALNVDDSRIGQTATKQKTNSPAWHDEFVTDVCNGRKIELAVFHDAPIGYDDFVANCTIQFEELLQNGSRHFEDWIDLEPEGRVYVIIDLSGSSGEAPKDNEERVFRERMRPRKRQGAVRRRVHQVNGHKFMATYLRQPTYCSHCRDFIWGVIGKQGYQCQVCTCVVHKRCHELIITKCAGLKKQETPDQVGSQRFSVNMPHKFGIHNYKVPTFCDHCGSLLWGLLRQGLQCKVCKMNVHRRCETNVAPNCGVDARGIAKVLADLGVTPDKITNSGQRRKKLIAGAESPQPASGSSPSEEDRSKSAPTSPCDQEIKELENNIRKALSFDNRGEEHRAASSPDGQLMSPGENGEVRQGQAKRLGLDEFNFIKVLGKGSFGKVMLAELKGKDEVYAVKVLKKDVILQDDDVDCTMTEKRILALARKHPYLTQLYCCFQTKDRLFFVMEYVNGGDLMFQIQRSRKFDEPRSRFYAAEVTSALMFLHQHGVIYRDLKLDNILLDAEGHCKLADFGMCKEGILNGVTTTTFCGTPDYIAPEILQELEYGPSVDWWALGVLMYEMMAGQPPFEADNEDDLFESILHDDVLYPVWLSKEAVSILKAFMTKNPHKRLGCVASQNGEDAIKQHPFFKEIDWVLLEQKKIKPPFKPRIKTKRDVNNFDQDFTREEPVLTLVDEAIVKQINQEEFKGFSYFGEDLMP
The series can be described thus: Inhibition of human full length PKCepsilon.

Series [13] addresses Tyrosine-protein kinase Fyn (Homo sapiens, UniProt P06241). The series can be described thus: Inhibition of Fyn.
A short description of series [14]: Inhibition of p38.
A short description of series [15]: Inhibition of VEGFR.
The target in series [16] is Tyrosine-protein kinase HCK (Homo sapiens, UniProt P08631). The series can be described thus: Inhibition of Hck.
Series [17] in a line: Inhibition of PDGFR.
Series [18] addresses Protein kinase C theta type (Homo sapiens, UniProt Q04759). The series can be described thus: Inhibition of human full length PKCtheta.
The target in series [19] is Tyrosine-protein kinase Lck (Homo sapiens, UniProt P06239).
Tyrosine-protein kinase Lck, sequence (P06239 whole entry): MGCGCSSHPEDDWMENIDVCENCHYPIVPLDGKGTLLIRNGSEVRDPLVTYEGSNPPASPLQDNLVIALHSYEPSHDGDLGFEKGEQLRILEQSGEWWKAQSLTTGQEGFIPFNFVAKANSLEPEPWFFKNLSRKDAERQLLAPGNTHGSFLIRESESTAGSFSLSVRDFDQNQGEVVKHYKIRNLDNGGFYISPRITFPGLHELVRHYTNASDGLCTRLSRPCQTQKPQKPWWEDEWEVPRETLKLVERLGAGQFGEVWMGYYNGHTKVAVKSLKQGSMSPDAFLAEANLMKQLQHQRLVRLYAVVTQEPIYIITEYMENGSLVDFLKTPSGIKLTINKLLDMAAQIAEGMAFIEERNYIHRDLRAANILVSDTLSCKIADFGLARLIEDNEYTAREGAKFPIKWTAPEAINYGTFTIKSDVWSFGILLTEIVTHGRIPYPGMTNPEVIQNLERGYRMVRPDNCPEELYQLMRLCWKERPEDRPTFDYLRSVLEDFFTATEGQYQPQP

Tyrosine-protein kinase Lyn, sequence (P07948 whole entry): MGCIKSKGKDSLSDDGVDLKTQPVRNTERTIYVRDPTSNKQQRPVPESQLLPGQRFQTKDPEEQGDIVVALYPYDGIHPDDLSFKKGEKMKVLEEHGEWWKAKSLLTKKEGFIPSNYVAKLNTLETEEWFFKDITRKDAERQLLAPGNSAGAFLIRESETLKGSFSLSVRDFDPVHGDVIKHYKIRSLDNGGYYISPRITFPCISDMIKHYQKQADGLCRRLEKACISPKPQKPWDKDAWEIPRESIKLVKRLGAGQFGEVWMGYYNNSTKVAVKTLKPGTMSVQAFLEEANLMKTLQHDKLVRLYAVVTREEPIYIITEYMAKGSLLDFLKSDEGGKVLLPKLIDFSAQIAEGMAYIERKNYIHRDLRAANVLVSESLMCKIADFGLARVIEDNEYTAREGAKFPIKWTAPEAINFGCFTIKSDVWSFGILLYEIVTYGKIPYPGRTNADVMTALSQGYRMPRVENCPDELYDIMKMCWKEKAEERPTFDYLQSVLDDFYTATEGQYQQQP
Protein kinase C delta type, sequence (Q05655 whole entry): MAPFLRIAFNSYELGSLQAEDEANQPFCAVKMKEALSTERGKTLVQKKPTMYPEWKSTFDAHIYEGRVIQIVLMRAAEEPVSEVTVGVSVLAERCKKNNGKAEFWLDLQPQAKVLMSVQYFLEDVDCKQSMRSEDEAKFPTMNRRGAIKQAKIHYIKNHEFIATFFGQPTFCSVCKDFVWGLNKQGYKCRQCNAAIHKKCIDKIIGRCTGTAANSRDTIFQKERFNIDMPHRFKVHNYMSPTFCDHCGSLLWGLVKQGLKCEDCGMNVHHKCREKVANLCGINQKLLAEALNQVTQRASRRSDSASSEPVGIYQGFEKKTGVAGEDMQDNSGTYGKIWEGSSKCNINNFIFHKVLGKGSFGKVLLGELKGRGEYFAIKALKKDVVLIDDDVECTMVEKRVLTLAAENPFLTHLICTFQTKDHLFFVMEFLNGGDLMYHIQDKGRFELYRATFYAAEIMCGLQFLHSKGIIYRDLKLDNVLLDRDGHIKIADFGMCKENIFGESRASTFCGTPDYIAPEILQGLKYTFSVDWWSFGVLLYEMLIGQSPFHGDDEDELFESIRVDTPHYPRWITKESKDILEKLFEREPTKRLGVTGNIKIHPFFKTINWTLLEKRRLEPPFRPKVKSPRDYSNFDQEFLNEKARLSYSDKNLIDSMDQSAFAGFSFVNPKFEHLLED
Protein kinase C theta type, sequence (Q04759 whole entry): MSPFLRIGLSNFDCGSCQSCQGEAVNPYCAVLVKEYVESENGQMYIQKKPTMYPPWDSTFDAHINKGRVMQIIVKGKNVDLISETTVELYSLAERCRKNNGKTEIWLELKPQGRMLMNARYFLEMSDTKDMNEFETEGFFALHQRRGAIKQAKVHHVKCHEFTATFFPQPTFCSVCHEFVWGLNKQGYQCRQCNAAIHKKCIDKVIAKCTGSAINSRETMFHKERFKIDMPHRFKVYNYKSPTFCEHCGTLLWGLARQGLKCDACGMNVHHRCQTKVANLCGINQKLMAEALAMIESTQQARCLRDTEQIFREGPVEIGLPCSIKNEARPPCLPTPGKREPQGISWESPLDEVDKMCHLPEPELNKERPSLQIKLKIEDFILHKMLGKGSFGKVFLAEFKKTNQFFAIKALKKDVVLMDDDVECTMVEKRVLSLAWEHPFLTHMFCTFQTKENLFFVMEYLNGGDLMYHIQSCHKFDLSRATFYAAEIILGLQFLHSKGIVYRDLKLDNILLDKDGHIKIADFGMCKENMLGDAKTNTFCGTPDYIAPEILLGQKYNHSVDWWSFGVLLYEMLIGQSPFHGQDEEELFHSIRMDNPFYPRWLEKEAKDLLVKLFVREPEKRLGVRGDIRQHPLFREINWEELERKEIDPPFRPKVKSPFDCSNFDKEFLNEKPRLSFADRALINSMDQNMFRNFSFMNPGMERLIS
Proto-oncogene tyrosine-protein kinase Src, sequence (P12931 2-536 limits assumed): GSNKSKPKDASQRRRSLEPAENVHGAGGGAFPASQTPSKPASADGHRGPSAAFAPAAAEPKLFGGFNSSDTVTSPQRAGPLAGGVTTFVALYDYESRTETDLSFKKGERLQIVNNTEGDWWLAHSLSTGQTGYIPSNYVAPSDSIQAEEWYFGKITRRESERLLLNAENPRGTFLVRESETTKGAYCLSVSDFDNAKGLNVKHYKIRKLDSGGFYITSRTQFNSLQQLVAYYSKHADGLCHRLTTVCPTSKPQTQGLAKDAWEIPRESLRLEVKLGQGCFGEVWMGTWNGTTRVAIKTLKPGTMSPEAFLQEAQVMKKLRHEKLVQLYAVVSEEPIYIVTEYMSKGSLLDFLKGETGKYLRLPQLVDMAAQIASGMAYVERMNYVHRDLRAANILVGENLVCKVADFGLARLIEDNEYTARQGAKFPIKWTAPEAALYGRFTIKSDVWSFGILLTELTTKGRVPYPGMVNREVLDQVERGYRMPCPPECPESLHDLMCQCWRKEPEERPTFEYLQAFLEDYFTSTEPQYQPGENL
Tyrosine-protein kinase Fyn, sequence (P06241 whole entry): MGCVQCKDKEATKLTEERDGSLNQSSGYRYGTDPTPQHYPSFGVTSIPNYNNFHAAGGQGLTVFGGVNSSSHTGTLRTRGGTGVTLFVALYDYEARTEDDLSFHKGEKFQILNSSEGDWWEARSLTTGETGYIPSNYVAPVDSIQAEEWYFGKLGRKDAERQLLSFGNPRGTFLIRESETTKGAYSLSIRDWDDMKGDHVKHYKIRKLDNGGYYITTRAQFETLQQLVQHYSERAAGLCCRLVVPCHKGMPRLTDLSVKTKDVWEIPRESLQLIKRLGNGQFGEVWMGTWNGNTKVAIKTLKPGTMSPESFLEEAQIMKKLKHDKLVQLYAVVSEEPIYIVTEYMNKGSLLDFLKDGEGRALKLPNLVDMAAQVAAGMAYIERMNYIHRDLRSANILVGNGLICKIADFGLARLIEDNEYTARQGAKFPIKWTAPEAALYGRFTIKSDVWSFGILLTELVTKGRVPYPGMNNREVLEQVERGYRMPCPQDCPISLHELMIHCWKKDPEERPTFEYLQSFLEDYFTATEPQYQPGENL
MAP kinase-activated protein kinase 2, sequence (P49137 whole entry): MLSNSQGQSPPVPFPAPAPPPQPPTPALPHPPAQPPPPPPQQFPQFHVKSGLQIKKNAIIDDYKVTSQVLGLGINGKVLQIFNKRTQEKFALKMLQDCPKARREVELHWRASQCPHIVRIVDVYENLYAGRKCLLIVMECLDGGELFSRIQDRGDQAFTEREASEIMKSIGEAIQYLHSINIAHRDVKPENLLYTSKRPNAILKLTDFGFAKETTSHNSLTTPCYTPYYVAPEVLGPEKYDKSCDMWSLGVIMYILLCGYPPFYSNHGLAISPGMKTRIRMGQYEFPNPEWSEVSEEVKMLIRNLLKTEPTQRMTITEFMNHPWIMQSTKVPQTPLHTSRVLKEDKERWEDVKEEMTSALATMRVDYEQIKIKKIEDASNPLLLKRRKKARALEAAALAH
Protein kinase C beta type, sequence (P05771 whole entry): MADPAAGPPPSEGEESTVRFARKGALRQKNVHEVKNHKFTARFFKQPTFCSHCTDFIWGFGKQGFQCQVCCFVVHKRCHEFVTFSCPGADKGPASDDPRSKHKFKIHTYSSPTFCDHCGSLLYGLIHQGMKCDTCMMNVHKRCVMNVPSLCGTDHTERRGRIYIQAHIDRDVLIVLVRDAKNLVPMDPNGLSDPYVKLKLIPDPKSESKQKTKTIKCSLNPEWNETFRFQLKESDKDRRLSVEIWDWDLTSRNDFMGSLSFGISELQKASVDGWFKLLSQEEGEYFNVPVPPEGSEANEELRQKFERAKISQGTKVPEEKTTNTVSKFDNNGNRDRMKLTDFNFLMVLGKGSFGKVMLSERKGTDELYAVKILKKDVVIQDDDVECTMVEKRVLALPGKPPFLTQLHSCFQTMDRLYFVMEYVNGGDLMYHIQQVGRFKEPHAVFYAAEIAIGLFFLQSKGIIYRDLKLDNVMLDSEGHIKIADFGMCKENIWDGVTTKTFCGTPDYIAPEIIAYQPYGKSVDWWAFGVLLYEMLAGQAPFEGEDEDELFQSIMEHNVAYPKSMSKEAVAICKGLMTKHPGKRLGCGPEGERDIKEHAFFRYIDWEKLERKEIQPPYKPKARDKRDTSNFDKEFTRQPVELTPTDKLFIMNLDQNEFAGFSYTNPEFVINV

Take `COc1c(CN(C)C)cccc1-c1cc2c(Nc3ccc4[nH]ccc4c3C)c(C#N)cnc2s1`: in the series filed under Homo sapiens, the Ratio IC50 was found to be 2. Further, the IC50 in series [1] is 27 nM; in [2], 1700 nM.
`Cc1c(Nc2c(C#N)cnc3sc(-c4cccc(CN(C)C)c4)cc23)ccc2[nH]ccc12`: in the series filed under Homo sapiens, the Ratio IC50 is 4. In series [2], this compound had an IC50 of 520 nM.
In the case of `COc1ccc(CN(C)C)c(-c2cc3c(Nc4ccc5[nH]ccc5c4C)c(C#N)cnc3s2)c1`, the IC50 in [3] is 360 nM; in [4], 22000 nM; in series [7], over 5000 nM; in series [1] it was 130 nM; in [11], over 5000 nM; in series [12] it was 95 nM. The IC50 in [13] was over 5000 nM; in [2], 13000 nM; in series [14] it was over 5000 nM; in series [15], over 5000 nM; in [16] it was over 5000 nM; in series [17], over 5000 nM. For the same compound, the half-life in series [5], in series [8] and in series [10] was under 10 min each time. In series [6], the Papp amounted to 1.04 ×10⁻⁶ cm/s. In series [9], this compound gave a solubility of 12 µg/mL (≈ 25.7 µM).
With `COc1ccccc1-c1cc2c(Nc3ccc4[nH]ccc4c3C)c(C#N)cnc2s1`, in the series listed under Homo sapiens, the Ratio IC50 came out at 10. Moreover, the IC50 in series [1] worked out at 250 nM; in [2], 310 nM; in [18], 23 nM.
As for `Cc1c(Nc2c(C#N)cnc3sc(-c4csc(CN(C)C)c4)cc23)ccc2[nH]ccc12`, the IC50 in [1] came out at 51 nM; in series [2], 410 nM.
Consider `N#Cc1cnc2sc(-c3ccccc3)cc2c1Nc1ccc2[nH]ccc2c1`, for which inhibition in series [18] was half-maximal at 52 nM (IC50).
For `Cc1ccc(CN(C)C)cc1-c1cc2c(Nc3ccc4[nH]ccc4c3C)c(C#N)cnc2s1`, the Ratio IC50 in the series listed under Homo sapiens turned out to be 4. Further, the results for the IC50 in [1] and in series [2] were 410 nM and 230 nM, respectively.
For the compound `Cc1c(Nc2c(C#N)cnc3sc(-c4ccccc4CN(C)C)cc23)ccc2[nH]ccc12`, the IC50 in series [1] was found to be 380 nM; in [2], 37000 nM.
With `CCOc1ccc(CN(C)C)cc1-c1cc2c(Nc3ccc4[nH]ccc4c3C)c(C#N)cnc2s1`, the Ratio IC50 in the series listed under Homo sapiens turned out to be 9. Moreover, the values for the IC50 in [1], in [2] and in [18] were 82 nM, 74 nM and 9.2 nM, respectively.
In the case of `Cc1c(Nc2c(C#N)cnc3sc(-c4ccc(CN(C)C)cc4)cc23)ccc2[nH]ccc12`, the IC50 in [1] was found to be 88 nM; in series [2] it was 100 nM.
`Cc1c(Nc2c(C#N)cnc3sc(-c4cncc(CN(C)C)c4)cc23)ccc2[nH]ccc12`: the IC50 was determined as 170 nM in [1], 2200 nM in series [2] and 84 nM in series [18].
`COc1ccc(CN(C)C)cc1-c1cc2c(Nc3ccc4[nH]ccc4c3C)c(C#N)cnc2s1`: the IC50 in series [1] was 24 nM; in series [19] it was 6 nM; in series [2] it was 23 nM; in series [18], 8.7 nM.
